Results from patent US5977326A, “Process for making morphine-6-glucuronide or substituted morphine-6-glucuronide” (priority 1991, dated 1999).

How the values were obtained:
[1] = In vivo antinociceptive activity (A.U.C.), animal pain model; settings: area under the time effect curve
Source text: *A.U.C. = area under the time effect curve.

[2] = versus morphine; R. Osborne et al., The Lancet, 1988, 828; cited from earlier work
[3] = target: μ1 Receptor (opioid analgesia receptor) (Homo sapiens, UniProt P35372); type: binding
μ1 Receptor (opioid analgesia receptor), sequence (P35372 whole entry): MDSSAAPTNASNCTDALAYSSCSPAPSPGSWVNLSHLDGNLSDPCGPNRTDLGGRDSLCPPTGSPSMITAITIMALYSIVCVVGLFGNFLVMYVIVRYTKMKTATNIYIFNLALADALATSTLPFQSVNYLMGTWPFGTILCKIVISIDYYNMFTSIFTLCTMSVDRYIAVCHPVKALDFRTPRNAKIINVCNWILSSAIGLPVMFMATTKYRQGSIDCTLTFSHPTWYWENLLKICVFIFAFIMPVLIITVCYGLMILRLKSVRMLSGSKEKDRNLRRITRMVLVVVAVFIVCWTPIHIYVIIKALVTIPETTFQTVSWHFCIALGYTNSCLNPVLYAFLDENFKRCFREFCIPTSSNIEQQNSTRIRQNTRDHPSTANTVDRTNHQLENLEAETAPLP
Source text: compound which displaces 50% of a labelled competitive ligand from […]

Row | SMILES | In vivo antinociceptive (A.U.C.) ([1]; 1 mg) | In vivo antinociceptive (A.U.C.) ([1]; 2 mg) | In vivo antinociceptive (A.U.C.) ([1]; 4 mg) | analgesic power compared with morphine [2] | In vivo antinociceptive (A.U.C.) ([1]; 8 mg) | binding affinity to the receptor (μ1), in words [3]
1 | CN1CC[C@]23c4c5ccc(O)c4O[C@H]2[C@@H](O)C=C[C@H]3[C@H]1C5 [Compound 1, morphine] | 197.3 | 241.4 | 738.3 |  |  | 
2 | CN1CC[C@]23c4c5ccc(O)c4O[C@H]2[C@@H](O[C@@H]2O[C@H](C(=O)O)[C@@H](O)[C@H](O)[C@H]2O)C=C[C@H]3[C@H]1C5 [Compound 2, morphine-6-glucuronide] |  | 209.6 | 618.1 | more powerful analgesic than morphine itself |  | 
3 | CN1CC[C@]23c4c5ccc(O)c4O[C@H]2[C@@H](O[C@@H]2OC(C(=O)O)=C[C@H](O)[C@H]2O)C=C[C@H]3[C@H]1C5 [Compound 3] |  | 205.0 | 168.5 |  | 175.5 | 
4 | CN1CC[C@]23c4c5ccc(O)c4O[C@H]2[C@@H](O[C@@H]2O[C@H](C(=O)O)[C@@H](O)[C@H]2O)C=C[C@H]3[C@H]1C5 [Compound 4] |  |  | 238.1 |  | 68.3 | 
5 | O=C(O)[C@H]1O[C@@H](O[C@H]2C=C[C@H]3[C@H]4Cc5ccc(O)c6c5[C@@]3(CCN4)[C@H]2O6)[C@H](O)[C@@H](O)[C@@H]1O [Compound 5] |  | 65.6 | 564.8 |  | 837.9 | 
6 | CN1CC[C@]23c4c5ccc(O)c4O[C@H]2[C@@H](O[C@@H]2O[C@H](C(=O)O)[C@@H](O)[C@H](O)[C@H]2O)CC[C@H]3[C@H]1C5 [Compound 6, 1-(7,8-dihydromorphin-6-yl)-β-D-glucopyranosiduronic acid] | 277.4 | 720.4 | 753.3 |  |  | greatest binding affinity to the relevant receptor (μ1)
